Source: patent US20260008780A1, “SUBSTITUTED 3,4-DIHYDROISOQUINOLIN-1(2H)-ONE DERIVATIVES AND RELATED USES” (NodThera Limited, priority 2022, published 2026)

Tested on: IL-1β release upon NLRP3 activation in peripheral blood mononuclear cells (PBMC)
Experiment: PBMC IC50 Determination Assay
Type: cell-based
Details: Homo sapiens; PBMC from buffy coats, LPS 3 h, compound 30 min, then ATP (5 mM) or nigericin (10 μM) 1 h; IL-1β in media by ELISA (Protocol A) or HTRF (Protocol B)
Method: The compounds of the present disclosure were tested for their inhibitory activity against IL-1β release upon NLRP3 activation in peripheral blood mononuclear cells (PBMC).
Protocol A. PBMC were isolated from buffy coats by density gradient centrifugation on Histopaque-1077 (Sigma, cat no. 10771). Isolated cells were seeded into the wells of a 96-well plate and incubated for 3 h with lipopolysaccharide (LPS). Following medium exchange, the compounds of the present disclosure were added (a single compound per well) and the cells were incubated for 30 min. Next, the cells were stimulated either with ATP (5 mM) or nigericin (10 μM) for 1 h and the cell culture media from the wells were collected for further analysis.
The release of IL-1β into the media was determined by a quantitative detection of IL-1β in the media using an IL-1p enzyme-linked immunosorbent assay (ELISA) Ready-SET-Go!, eBioscience cat. No. 88-7261-88. Briefly, in a first step, high affinity binding plates (Corning, Costar 9018 or NUNC Maxisorp Cat No. 44-2404) were coated overnight at 4° C. with specific capture antibody included in the kit (anti-human IL-1β ref 14-7018-68). Subsequently, plates were blocked with blocking buffer for 1 h at room temperature (rt) and after washing with a buffer (PBS with 0.05% Tween-20) incubated with protein standard and culture media. After 2 h of incubation at rt, plates were washed and incubated with biotinylated detection antibody included in the kit (anti-human IL-1β Biotin ref. 33-7110-68) for 1 h at rt. Plates were washed and incubated with HRP-streptavidin for 30 min at rt and washed again. The signal was developed after addition of 3,3′,5,5′-tetramethylbenzidine-peroxidase (TMB) until colour appeared and the reaction was stopped by 2 M H2SO4. A microplate spectrophotometer (BioTek) was used to detect signals with 450 nm. The detection range of IL-1β ELISA was […].
Protocol B. PBMC were isolated from buffy coats by density gradient centrifugation on Histopaque-1077 (Sigma, cat no. 10771). Isolated cells were seeded into the wells (280,000 cells/well) of a 96-well plate and incubated for 3 h with lipopolysaccharide (LPS, 1 μg/mL diluted 1000× from a 1 mg/mL stock solution). The compounds of the present disclosure were added (a single compound per well) and the cells were incubated for 30 min. Next, the cells were stimulated with ATP (5 mM final concentration diluted 20× from a 100 mM stock solution) for 1 h and the cell culture media from the wells were collected for further analysis.
The release of IL-1β into the media was determined by quantitative detection of IL-1β in the media using HTRF®, CisBio cat. No. 62HIL1BPEH. Briefly, cell culture supernatant were dispensed directly into the assay plate containing antibodies labelled with the HTRF® donor and acceptor. A microplate spectrophotometer (BMG) was used to detect signals at 655 nm and 620 nm. The detection range of IL-1β HTRF® was 39-6500 μg/mL.

CCc1cc2c(s1)C(=O)N(CC(=O)Nc1ncc(OC)cn1)CC21CC1 [Compound 61, 2-{2′-Ethyl-7′-oxo-6′,7′-dihydro-5′H-spiro[cyclopropane-1,4′-thieno[2,3-c]pyridin]-6′-yl}-N-(5-methoxypyrimidin-2-yl)acetamide] gave an IC50 of 100 to 1000 nM.

C[C@@H]1CN(CC(=O)N[C@H]2C[C@@](C)(O)C2)C(=O)c2cc3sc(Cl)cc3n21 [Compound 10, 2-[(12R)-4-Chloro-12-methyl-9-oxo-5-thia-1,10-diazatricyclo[6.4.0.02,6]dodeca-2(6),3,7-trien-10-yl]-N-(3-hydroxy-3-methyl-cyclobutyl)acetamide] was tested, and the IC50 was 3000 to 10000 nM.

CCc1cc2c(s1)C(=O)N(CC(=O)Nc1ncc(-n3cccn3)cn1)CC21CC1 [Compound 52, 2-{2′-Ethyl-7′-oxo-6′,7′-dihydro-5′H-spiro[cyclopropane-1,4′-thieno[2,3-c]pyridin]-6′-yl}-N-[5-(1H-pyrazol-1-yl)pyrimidin-2-yl]acetamide] showed an IC50 of 1000 to 3000 nM.

With O=C(CN1CC2(CC2)n2c(cc3sc(Cl)cc32)C1=O)Nc1ncc(F)cn1 [Compound 6, 2-(4-Chloro-9-oxo-spiro[5-thia-1,10-diazatricyclo[6.4.0.0^2.6]dodeca-2(6),3,7-triene-12,1′-cyclopropane]-10-yl)-N-(5-fluoropyrimidin-2-yl)acetamide] the IC50 was less than 100 nM.

O=C(CN1CC2(CC2)c2cc(CC(F)F)sc2C1=O)Nc1ncccn1 [Compound 75, 2-(2′-(2,2-Difluoroethyl)-7′-oxo-5′H-spiro[cyclopropane-1,4′-thieno[2,3-c]pyridin]-6′(7′H)-yl)-N-(pyrimidin-2-yl)acetamide] was tested, and the IC50 was 1000 to 3000 nM.

Compound Cc1cc2c(s1)C(=O)N(CC(=O)Nc1ncccn1)CC21CC1 [Compound 24, 2-(2′-Methyl-7′-oxo-5′H-spiro[cyclopropane-1,4′-thieno[2,3-c]pyridin]-6′(7′H)-yl)-N-(pyrimidin-2-yl)acetamide] has an IC50 of 1000 to 3000 nM.

Work on CCc1cc2c(s1)C(C)CN(CC(=O)Nc1ncccn1)C2=O (stereo not shown) [Compound 69] yielded an IC50 of 1000 to 3000 nM.

In the case of CC1CN(CC(=O)Nc2ncccn2)C(=O)c2cc(C3CC3)sc21 (stereo not shown) [Compound 70, 2-(2-Cyclopropyl-7-methyl-4-oxo-6,7-dihydrothieno[3,2-c]pyridin-5(4H)-yl)-N-(pyrimidin-2-yl)acetamide], the IC50 is reported as 3000 to 10000 nM.

Work on CCNc1nc2c(s1)C(=O)N(CC(=O)Nc1ncccn1)CC2C (stereo not shown) [Compound 73, 2-(2-(Ethylamino)-7-methyl-4-oxo-6,7-dihydrothiazolo[5,4-c]pyridin-5(4H)-yl)-N-(pyrimidin-2-yl)acetamide] yielded an IC50 of 10000 to 50000 nM.

O=C(CN1CC2(CC2)c2oc(C3CC3)cc2C1=O)Nc1ccc2nncn2c1 [Compound 58, 2-{2′-Cyclopropyl-4′-oxo-5′,6′-dihydro-4′H-spiro[cyclopropane-1,7′-furo[3,2-c]pyridin]-5′-y}—N-{[1,2,4]triazolo[4,3-a]pyridin-6-yl}acetamide] gave an IC50 of 3000 to 10000 nM.

For CC(C)c1cc2c(n1C)C(=O)N(CC(=O)Nc1ncccn1)CC21CC1 [Compound 20, 2-(2′-Isopropyl-1′-methyl-7′-oxo-1′,7′-dihydrospiro[cyclopropane-1,4′-pyrrolo[2,3-c]pyridin]-6′(5′H)-yl)-N-(pyrimidin-2-yl)acetamide], the IC50 was 1000 to 3000 nM.

For CC1CN(CC(=O)Nc2ncccn2)C(=O)c2cc3scnc3n21 (stereo not shown) [Compound 67, 2-(5-Methyl-8-oxo-5,6-dihydrothiazolo[5′,4′:4,5]pyrrolo[1,2-a]pyrazin-7(8H)-yl)-N-(pyrimidin-2-yl)acetamide], the IC50 was 100 to 1000 nM.

CCc1cc2c(o1)C1(CC1)CN(CC(=O)Nc1ncccn1)C2=O [Compound 18, 2-(2′-Ethyl-4′-oxo-4′H-spiro[cyclopropane-1,7′-furo[3,2-c]pyridin]-5′(6′H)-yl)-N-(pyrimidin-2-yl)acetamide] gave an IC50 of 100 to 1000 nM.

O=C(CN1CC2(CC2)c2cc(C3CC3)sc2C1=O)Nc1ncccn1 [Compound 26, 2-(2′-Cyclopropyl-7′-oxo-5′H-spiro[cyclopropane-1,4′-thieno[2,3-c]pyridin]-6′(7′H)-yl)-N-(pyrimidin-2-yl)acetamide] gave an IC50 of 100 to 1000 nM.

CCc1cc2c(s1)C(=O)N(CC(=O)Nc1ncc(O)cn1)CC21CC1 [Compound 62, 2-{2′-Ethyl-7′-oxo-6′,7′-dihydro-5′H-spiro[cyclopropane-1,4′-thieno[2,3-c]pyridin]-6′-yl}-N-(5-hydroxypyrimidin-2-yl)acetamide] was tested, and the IC50 was 100 to 1000 nM.

For CC(C)c1nc2c(n1C)C(=O)N(CC(=O)Nc1ncccn1)CC21CC1 [Compound 21], the IC50 was 10000 to 50000 nM.

Work on CCc1cc2c(s1)C(=O)N(CC(=O)Nc1ccc3c(c1)[nH]c(=O)n3C)CC21CC1 [Compound 44, 2-(2′-Ethyl-7′-oxo-5′H-spiro[cyclopropane-1,4′-thieno[2,3-c]pyridin]-6′(7′H)-yl)-N-(1-methyl-2-oxo-2,3-dihydro-1H-benzo[d]imidazol-5-yl)acetamide] yielded an IC50 of 1000 to 3000 nM.

CCc1cc2c(s1)C(=O)N(CC(=O)Nc1ncc3[nH]c(=O)n(C)c3n1)CC21CC1 [Compound 68, 2-(2′-Ethyl-7′-oxo-5′H-spiro[cyclopropane-1,4′-thieno[2,3-c]pyridin]-6′(7′H)-yl)-N-(9-methyl-8-oxo-8,9-dihydro-7H-purin-2-yl)acetamide] was tested, and the IC50 was 3000 to 10000 nM.

For CC1CN(CC(=O)Nc2ncccn2)C(=O)c2cc(C3CC3)oc21 (stereo not shown) [Compound 65, 2-(2-Cyclopropyl-7-methyl-4-oxo-6,7-dihydrofuro[3,2-c]pyridin-5(4H)-yl)-N-(pyrimidin-2-yl)acetamide], the IC50 was 100 to 1000 nM.

CC(C)n1cc2c(n1)C1(CC1)CN(CC(=O)Nc1ncccn1)C2=O [Compound 17, 2-(2-Isopropyl-4-oxo-spiro[6H-pyrazolo[4,3-c]pyridine-7,1′-cyclopropane]-5-yl)-N-pyrimidin-2-yl-acetamide] showed an IC50 of 3000 to 10000 nM.

CCc1cc2c(s1)C(=O)N(CC(=O)Nc1ccncn1)CC21CC1 [Compound 50, 2-{2′-Ethyl-7′-oxo-6′,7′-dihydro-5′H-spiro[cyclopropane-1,4′-thieno[2,3-c]pyridin]-6′-yl}-N-(pyrimidin-4-yl)acetamide] was tested, and the IC50 was 100 to 1000 nM.

CCc1cc2c(s1)C(=O)N(CC(=O)Nc1ncc([N+](=O)[O-])cn1)CC21CC1 [Compound 53, 2-{2′-Ethyl-7′-oxo-6′,7′-dihydro-5′H-spiro[cyclopropane-1,4′-thieno[2,3-c]pyridin]-6′-yl}-N-(5-nitropyrimidin-2-yl)acetamide] was tested, and the IC50 was 100 to 1000 nM.

For CC(C)c1cc2c([nH]1)C(=O)N(CC(=O)Nc1ncccn1)CC21CC1 [Compound 19, 2-(2′-Isopropyl-7′-oxo-1′,7′-dihydrospiro[cyclopropane-1,4′-pyrrolo[2,3-c]pyridin]-6′(5′H)-yl)-N-(pyrimidin-2-yl)acetamide], the IC50 was 1000 to 3000 nM.

For CC(C)c1cc2c(s1)C(=O)N(CC(=O)Nc1ncccn1)CC21CC1 [Compound 25, 2-(2′-Isopropyl-7′-oxo-5′H-spiro[cyclopropane-1,4′-thieno[2,3-c]pyridin]-6′(7′H)-yl)-N-(pyrimidin-2-yl)acetamide], the IC50 was 100 to 1000 nM.

O=C(CN1CC2(CC2)n2c(cc3sc(Cl)cc32)C1=O)Nc1ncccn1 [Compound 3, 2-(4-Chloro-9-oxo-spiro[5-thia-1,10-diazatricyclo[6.4.0.02,6]dodeca-2(6),3,7-triene-12,1′-cyclopropane]-10-yl)-N-pyrimidin-2-yl-acetamide] showed an IC50 of 100 to 1000 nM.

Work on CC(C)c1cc2n(c1)C1(CC1)CN(CC(=O)Nc1ncccn1)C2=O [Compound 11, 2-(7-Isopropyl-1-oxo-spiro[3H-pyrrolo[1,2-a]pyrazine-4,1′-cyclopropane]-2-yl)-N-pyrimidin-2-yl-acetamide] yielded an IC50 of 3000 to 10000 nM.

CC(C)c1cc2n(n1)[C@H](C)CN(CC(=O)Nc1ncccn1)C2=O [Compound 22, 2-[(7R)-7-Methyl-4-oxo-2-(propan-2-yl)-4H,5H,6H,7H-pyrazolo[1,5-a]pyrazin-5-yl]-N-(pyrimidin-2-yl)acetamide] showed an IC50 of 10000 to 50000 nM.

Compound CCc1cc2c(s1)C(=O)N(CC(=O)Nc1ncc(Cl)cn1)CC21CC1 [Compound 54, N-(5-Chloropyrimidin-2-yl)-2-{2′-ethyl-7′-oxo-6′,7′-dihydro-5′H-spiro[cyclopropane-1,4′-thieno[2,3-c]pyridin]-6′-yl}acetamide] has an IC50 of 100 to 1000 nM.
